The text below walks through data of the NIST ThermoML archive (doi:10.1016/j.jct.2007.06.016).

Numbers after ± are expanded uncertainties.

The nature of data set [1]: refractive index (Na D-line) (dimensionless). The following applies: 298.15 K; 101.33 kPa; Liquid; Standard Abbe refractometry.
For data set [2] the following is noted: 298.15 K, 101.33 kPa, Liquid.

For `CCCCCCCCCCCC` [dodecane], in data set [1], the refractive index was found to be 1.42011 ± 0.0007. For the same molecule, the mass density in data set [2] is reported as 745.32 ± 0.91 kg/m3.
Regarding `C1CCCCC1` [cyclohexane], the refractive index in data set [1] worked out at 1.42403 ± 0.00068. The mass density in data set [2] is on record as 773.76 ± 0.52 kg/m3.
With `CCCCCCCCn1cc[n+](C)c1.O=S(=O)([N-]S(=O)(=O)C(F)(F)F)C(F)(F)F`, the refractive index in data set [1] amounted to 1.43331 ± 0.0012. The mass density in data set [2] (Vibrating tube method) was found to be 1320.76 ± 9.5 kg/m3.
For `c1ccsc1` [thiophene], the refractive index in data set [1] turned out to be 1.52581 ± 0.0007. Besides, the mass density in data set [2] amounted to 1058.5 ± 0.55 kg/m3.
